Measurements published in ChEMBL document CHEMBL1132830, “Serotonin transporter inhibitors: synthesis and binding potency of 2'-methyl- and 3'-methyl-6-nitroquipazine” (Bioorg Med Chem Lett, 2000).
pKi: −log10 of the molar value.

Columns and labels:
[1] = target: Sodium-dependent serotonin transporter (Rattus norvegicus, UniProt P31652); assay: In vitro radioligand [3H]-paroxetine from rat cortical Serotonin transporter
[2] = Equipotent molar ratio of compound to that of standard (compound 1) was evaluated

Sodium-dependent serotonin transporter, sequence (P31652 whole entry): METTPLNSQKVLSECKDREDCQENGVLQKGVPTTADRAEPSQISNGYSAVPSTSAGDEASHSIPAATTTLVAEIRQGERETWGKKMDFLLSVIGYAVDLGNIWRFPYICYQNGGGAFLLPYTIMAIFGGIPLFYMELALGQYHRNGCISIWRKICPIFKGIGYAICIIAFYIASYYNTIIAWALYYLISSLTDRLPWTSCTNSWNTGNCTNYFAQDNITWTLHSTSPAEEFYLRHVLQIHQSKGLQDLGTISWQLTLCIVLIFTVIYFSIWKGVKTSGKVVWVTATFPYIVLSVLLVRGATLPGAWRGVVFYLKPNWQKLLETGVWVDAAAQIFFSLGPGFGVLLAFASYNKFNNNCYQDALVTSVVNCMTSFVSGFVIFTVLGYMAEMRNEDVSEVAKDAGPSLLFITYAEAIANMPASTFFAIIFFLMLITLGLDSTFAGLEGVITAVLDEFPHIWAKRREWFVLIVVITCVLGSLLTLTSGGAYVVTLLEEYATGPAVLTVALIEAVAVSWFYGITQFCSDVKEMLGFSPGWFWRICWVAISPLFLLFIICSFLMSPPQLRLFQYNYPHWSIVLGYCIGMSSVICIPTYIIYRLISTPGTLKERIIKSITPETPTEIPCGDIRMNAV

SMILES	pKi [1]	Ratio [2]
CC1CN(c2ccc3cc([N+](=O)[O-])ccc3n2)CCN1 (configuration not stated)	8.34	28
O=[N+]([O-])c1ccc2nc(N3CCNCC3)ccc2c1 [6-NITROQUIPAZINE]	9.79	1
O=[N+]([O-])c1ccc2nc(N3CCNCC3)ccc2c1I	9.72	–
CC1CNCCN1c1ccc2cc([N+](=O)[O-])ccc2n1 (configuration not stated)	10.09	0.49
